Values joined by “and” are separate entries in the source; they are usually repeats but may differ in a detail not shown here. Identical values can stand only once.
What was measured:
[1] = test system: HCE (human ciliary epithelial) cell line, NPE cells; assay: Cell volume (shrinkage) of NPE cells in isosmotic solution, Coulter Counter, 5 μM gramicidin; format: cell-based
Summary of the method: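 HCE-derived NPE cells suspended in isosmotic bicarbonate/HEPES Ringer's (pH 7.4, 298-305 mOsm), with 5 μM gramicidin D in all solutions to remove K^+ channel contribution. Volume measured by Coulter Counter as peak of distribution, normalized to first time point; shrinkage fit to monoexponential by nonlinear least squares for v∞ and τ. Vehicle-matched controls.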

human A3 receptor = biological target: T1, human A3 receptor (Homo sapiens, UniProt P0DMS8); assay: Adenylate cyclase assay, CHO cell membranes, forskolin stimulated; format: biochemical; conditions: forskolin 1 μM
T1 sequence (P0DMS8 1-318): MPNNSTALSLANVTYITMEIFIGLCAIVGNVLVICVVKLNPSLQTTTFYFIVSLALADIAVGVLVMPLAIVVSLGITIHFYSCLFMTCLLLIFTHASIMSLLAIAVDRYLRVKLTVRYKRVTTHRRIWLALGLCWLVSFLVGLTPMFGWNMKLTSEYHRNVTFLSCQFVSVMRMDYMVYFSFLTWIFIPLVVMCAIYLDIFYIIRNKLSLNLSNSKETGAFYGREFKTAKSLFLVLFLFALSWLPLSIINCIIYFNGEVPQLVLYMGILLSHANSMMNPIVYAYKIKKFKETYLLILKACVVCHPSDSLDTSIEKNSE

[2] = 30 nM IB-MECA, 5 μM gramicidin, FIG. 2A
[3] = FIG. 2D, 100 nM Cl-IB-MECA, IB-MECA in parallel

CNC(=O)[C@H]1O[C@@H](n2cnc3c(NCc4cccc(I)c4)ncnc32)[C@H](O)[C@@H]1O [IB-MECA, N^6-(3-iodobenzyl)-adenosine-5′-N-methyluronamide]
steady-state cell volume (V∞) [1, 2]: 98.5±0.1%
time constant of the shrinkage (τ) [1, 2]: 3.5 ± 1.5 min
effect of adenosine-receptor agonist on isoosmotic volume ([1]; 100 nM agonist): produced shrinkage
steady-state cell volume (V∞) ([1]; 100 nM, FIG. 5A): 95.6±0.2%
time constant of the shrinkage (τ) ([1]; 100 nM, FIG. 5A): 4.5 ± 0.6 min
steady-state cell volume (V∞) ([1]; 1 μM IB-MECA, FIG. 2A): 95.9±0.3%
time constant of the shrinkage (τ) ([1]; 1 μM IB-MECA, FIG. 2A): 2.4 ± 0.7 min
steady-state cell volume (V∞) ([1]; 1 μM IB-MECA, FIG. 2B): 97.5±0.1%
time constant of the shrinkage (τ) ([1]; 1 μM IB-MECA, FIG. 2B): 7.2 ± 1.0 min
steady-state cell volume (V∞) ([1]; 3 μM IB-MECA, FIG. 2B): 96.7±0.3%
time constant of the shrinkage (τ) ([1]; 3 μM IB-MECA, FIG. 2B): 10.0 ± 2.3 min
steady-state cell volume (V∞) ([1]; 10 μM IB-MECA, FIG. 2B): 97.9±0.2%
time constant of the shrinkage (τ) ([1]; 10 μM IB-MECA, FIG. 2B): 3.2 ± 1.1 min
steady-state cell volume (V∞) [1, 3]: 96.8±0.4%
time constant of the shrinkage (τ) [1, 3]: 6.3 ± 2.2 min
Kd ([1]; Lineweaver-Burk plot of monoexponential fits, FIG. 2C, read-out: apparent Kd for the IB-MECA-induced shrinkage): 55 nM and ~55 nM
Maximal inhibition of adenylate cyclase (human A3 receptor): ~60 % of total stimulation

— US6528516B1, “Methods for reducing intraocular pressure using A3 adenosine receptor antagonists” (Trustees of the University of Pennsylvania, The Center for …, priority 1998, dated 2003)
